Measurements: ChEMBL document CHEMBL1201862, “PubChem BioAssay data set” (2004)
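Values below derive from 48-hour exposures of cells grown in 96-well plates, with endpoints linearly interpolated between the two concentrations bracketing the appropriate inhibition level. Abbreviation: GI50, concentration required for 50% inhibition of growth.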 Activity calls are given as the source filed them. Cut-off read from the data, not from the text of the source: active = GI50 up to about 1.1 µM and inactive = higher.

Experiments:
Assay in all cases: DTP human tumour cell line panel, 48 h
SK-MEL-2 = system: SK-MEL-2
SN12C = system: SN12C
IGROV-1 = system: IGROV-1
SF-268 = system: SF-268
SF-539 = system: SF-539
Malme-3M = system: Malme-3M
MDA-N = system: MDA-N
HL-60 = system: HL-60
RPMI-8226 = system: RPMI-8226
MDA-MB-435 = system: MDA-MB-435
786-0 = system: 786-0
HT-29 = system: HT-29
MOLT-4 = system: MOLT-4
ACHN = system: ACHN
TK-10 = system: TK-10
KM12 = system: KM12
OVCAR-8 = system: OVCAR-8
SK-MEL-28 = system: SK-MEL-28
HOP-92 = system: HOP-92

Measured: GI50

COC(=O)/C=C/CC(=O)NS(C)(=O)=O
inactive: SK-MEL-2 > 10 µM | SN12C > 10 µM | IGROV-1 > 10 µM | SF-268 > 10 µM | SF-539 > 10 µM | Malme-3M > 10 µM | MDA-N > 10 µM | HL-60 > 10 µM | RPMI-8226 > 10 µM | MDA-MB-435 > 10 µM | 786-0 > 10 µM | HT-29 > 10 µM | MOLT-4 > 10 µM | ACHN > 10 µM | TK-10 > 10 µM | KM12 > 10 µM | OVCAR-8 > 10 µM | SK-MEL-28 > 10 µM

c1ccc2c(c1)SCCCSCCCS2
inactive: SN12C > 100 µM | IGROV-1 > 100 µM | SF-268 > 100 µM | SF-539 > 100 µM | MDA-N > 100 µM | HL-60 28.1 µM | MDA-MB-435 > 100 µM | 786-0 > 100 µM | HT-29 > 10 µM | MOLT-4 67.6 µM | TK-10 > 100 µM | HOP-92 60.1 µM | KM12 > 100 µM | OVCAR-8 > 100 µM | SK-MEL-28 > 100 µM

CC(C(=O)O)C(C)(O)C(=O)O (configuration not stated)
inactive: SK-MEL-2 > 100 µM | SN12C > 100 µM | IGROV-1 > 100 µM | SF-268 > 100 µM | SF-539 > 100 µM | Malme-3M > 100 µM | MDA-N > 100 µM | HL-60 > 100 µM | RPMI-8226 > 100 µM | MDA-MB-435 > 100 µM | 786-0 > 100 µM | HT-29 > 100 µM | MOLT-4 > 100 µM | TK-10 > 100 µM | KM12 > 100 µM | OVCAR-8 > 100 µM | SK-MEL-28 > 100 µM

CC(=O)/C(=C/N1CC(=O)NC1=S)C(=O)Nc1ccccc1C
inactive: SK-MEL-2 > 100 µM | SN12C > 100 µM | IGROV-1 > 100 µM | SF-268 > 100 µM | SF-539 > 100 µM | MDA-N > 100 µM | HL-60 > 100 µM | MDA-MB-435 > 100 µM | 786-0 > 100 µM | HT-29 > 100 µM | MOLT-4 > 100 µM | ACHN > 100 µM | TK-10 > 100 µM | HOP-92 > 100 µM | KM12 > 100 µM | OVCAR-8 > 100 µM | SK-MEL-28 > 100 µM

COc1cc(OC)c2c3c(OC)cc(OC)c4c(=O)c(O)c(C[C@@H](C)O)c(c5c(C[C@@H](C)O)c(O)c(=O)c1c25)c43
inactive: SK-MEL-2 19 µM | SN12C 24.5 µM | IGROV-1 16.6 µM | SF-268 18.9 µM | SF-539 24.8 µM | MDA-N 18.7 µM | HL-60 11.3 µM | MDA-MB-435 16.6 µM | 786-0 19.1 µM | HT-29 18.6 µM | MOLT-4 15.3 µM | ACHN 33.4 µM | TK-10 53 µM | HOP-92 14.5 µM | KM12 23.2 µM | OVCAR-8 19.8 µM | SK-MEL-28 20.1 µM

O=C(Nc1sccc1S(=O)(=O)c1ccc(Cl)cc1)C(F)(F)F
inactive: SK-MEL-2 13.5 µM | SN12C 10.3 µM | IGROV-1 32.1 µM | SF-268 17.5 µM | SF-539 26.1 µM | Malme-3M 27.2 µM | MDA-N 8.28 µM | RPMI-8226 3.88 µM | MDA-MB-435 39.1 µM | 786-0 17 µM | HT-29 25 µM | MOLT-4 15 µM | ACHN 43 µM | TK-10 78.7 µM | HOP-92 23.6 µM | KM12 13.4 µM | OVCAR-8 24.6 µM | SK-MEL-28 74.3 µM

Cc1ccc(CC2(C(=O)O)Cc3ccc(C)cc3C2)cc1 (configuration not stated)
inactive: SK-MEL-2 > 100 µM | SN12C > 100 µM | IGROV-1 > 100 µM | SF-268 > 100 µM | SF-539 > 100 µM | Malme-3M > 100 µM | MDA-N > 100 µM | HL-60 > 100 µM | RPMI-8226 69.3 µM | MDA-MB-435 > 100 µM | 786-0 > 100 µM | HT-29 > 100 µM | MOLT-4 > 100 µM | ACHN 94.4 µM | TK-10 > 100 µM | KM12 89.7 µM | OVCAR-8 > 100 µM | SK-MEL-28 > 100 µM

O=C(NCc1ccccc1)c1nn[nH]c1O
inactive: SK-MEL-2 > 100 µM | SN12C > 100 µM | IGROV-1 > 100 µM | SF-268 > 100 µM | Malme-3M > 100 µM | MDA-N > 100 µM | HL-60 > 100 µM | RPMI-8226 > 100 µM | MDA-MB-435 > 100 µM | 786-0 > 100 µM | HT-29 > 100 µM | MOLT-4 > 100 µM | ACHN > 100 µM | TK-10 > 100 µM | KM12 > 100 µM | OVCAR-8 > 100 µM | SK-MEL-28 > 100 µM
